Reference: patent US12195755B2, “Placental lipid bilayer for cell-free molecular interaction studies” (priority 2019, dated 2025)

What was measured:
keratinocytes = conditions: cited from earlier work
[1] = cited from earlier work
[2] = Parallel artificial membrane permeability assay (PAMPA) with suspended lipid bilayers; format: in vitro ADME, human; conditions: 0.1 mg/mL amphotericin B
Method: “Parallel artificial membrane permeability assay” (PAMPA) is a method that determines the permeability of substances from a donor compartment, through a lipid-infused artificial membrane into an acceptor compartment. A multi-well microtiter plate is used for the donor, and a membrane/acceptor compartment is placed on top. The whole assembly is referred to in the heterogeneous membrane art as a “sandwich.” Initially, the drug is added to the donor compartment, and the acceptor compartment is drug-free. After an incubation period, which may include stirring, the sandwich is separated, and the drug is measured in each compartment. Techniques including but not limited to absorbance measurements allow calculation of the drug that remains in the membrane.
Using a parallel artificial permeability assay (PAMPA) with suspended lipid bilayers, polyvinylidene difluoride (PVDF) 96-well multiscreen filter plates ([…]) and transport receiver plates (Millipore-Sigma, Burlington, MA, USA), the inventors investigate DEHP, amphotericin B, and amBisome® diffusion from a donor compartment, through the porous membrane treated with lipid, to an acceptor compartment. The maximum absorbance for DEHP, amphotericin B, and amBisome® was measured using a plate reader and determined to be 280 nm, 340 nm, and 320 nm, respectively. […]

SMILES: CNC(=O)Oc1cccc2c1OC(C)(C)C2 [Carbofuran, carbofuran]
- toxicity against keratinocytes (keratinocytes): toxic

SMILES: CCCCC(CC)COC(=O)c1ccccc1C(=O)OCC(CC)CCCC (centres unmarked) [DEHP, di(2-ethylhexyl) phthalate]
- risk for miscarriage ([1]; higher concentrations of phthalates): increases the risk for miscarriage
- more likely to lose a pregnancy compared to women with lower levels ([1]; women exposed to high concentrations): 60%

SMILES: C[C@@H]1[C@H](O)[C@@H](C)/C=C/C=C/C=C/C=C/C=C/C=C/C=C/[C@H](O[C@@H]2O[C@H](C)[C@@H](O)[C@H](N)[C@@H]2O)C[C@@H]2O[C@](O)(C[C@@H](O)C[C@@H](O)[C@H](O)CC[C@@H](O)C[C@@H](O)CC(=O)O[C@H]1C)C[C@H](O)[C@H]2C(=O)O [amphotericin B]
- interaction with suspended trophoblast bilayers compared to amBisome® [2]: interacts less
- interaction with suspended trophoblast bilayers compared to amBisome® ([2]; listed as Amphotericin B): interacted more
